{"source": "PubChem BioAssay AID434995", "about": "(Southern Research Specialized Biocontainment Screening …, 2010)", "key": {"[1]": {"assay": "PhoP regulon inhibitors in S. Typhi, SAR follow-up, purified and synthesized compounds, round 3 (AID 434995)", "conditions": "S. Typhi PhoP-regulated promoter GFP reporter, 4 h"}, "[2]": {"tested_on": "S. Typhi PhoP-regulated promoter GFP reporter, 4 h", "assay": "PhoP regulon inhibitors in S. Typhi, SAR follow-up, purified and synthesized compounds, round 3 (AID 434995)"}}, "note": "Active and inactive are the calls of the source. The rule behind the calls is not given here.", "data": [{"smiles": "COc1ccccc1CNC(=S)Nc1ccncc1", "values": [{"measurement": "inhibition", "setting": "[1]; at 150 µM (top of the series)", "result": "11.4% (inactive)"}]}, {"smiles": "O=C(Nc1cccc(C(F)(F)F)c1)N1CCCN(Cc2ccccc2F)C1", "values": [{"measurement": "inhibition", "setting": "[1]; at 150 µM (top of the series)", "result": "8.86% (inactive)"}]}, {"smiles": "O=C(Nc1cccc(F)c1)N1CCCN(Cc2ccccc2F)C1", "values": [{"measurement": "inhibition", "setting": "[1]; at 150 µM (top of the series)", "result": "25.8% (inactive)"}]}, {"smiles": "S=C(NCCc1ccc(Cl)cc1)Nc1ccncc1", "values": [{"measurement": "IC50", "setting": "[2]", "result": 20.7, "unit": "µM"}]}, {"smiles": "Cc1ccccc1CNC(=S)Nc1ccncc1", "values": [{"measurement": "inhibition", "setting": "[1]; at 150 µM (top of the series)", "result": "-37.8% (inactive)"}]}, {"smiles": "Cc1ccc(NC(=O)N2CCCN(Cc3ccccc3F)C2)cc1", "values": [{"measurement": "inhibition", "setting": "[1]; at 150 µM (top of the series)", "result": "-12.7% (inactive)"}]}, {"smiles": "O=C(Nc1cccc(I)c1)N1CCCN(Cc2ccccc2F)C1", "values": [{"measurement": "inhibition", "setting": "[1]; at 150 µM (top of the series)", "result": "-16.5% (inactive)"}]}, {"smiles": "N#Cc1ccccc1NC(=S)NCc1ccc(Cl)cc1", "values": [{"measurement": "inhibition", "setting": "[1]; at 150 µM (top of the series)", "result": "-27.4% (inactive)"}]}, {"smiles": "O=C(Nc1ccc(Cl)cc1)N1CCCN(Cc2ccccc2Br)C1", "values": [{"measurement": "IC50", "setting": "[2]", "result": 116, "unit": "µM"}]}, {"smiles": "N#Cc1ccc(NC(=S)NCc2ccc(Cl)cc2)cc1", "values": [{"measurement": "inhibition", "setting": "[1]; at 150 µM (top of the series)", "result": "-25.7% (inactive)"}]}, {"smiles": "O=C(Nc1ccc(Cl)cc1)N1CCCN(Cc2ccc(Br)cc2)C1", "values": [{"measurement": "inhibition", "setting": "[1]; at 75 µM (top of the series)", "result": "-28.5% (inactive)"}]}, {"smiles": "O=C(Nc1ccc(I)cc1)N1CCCN(Cc2ccccc2F)C1", "values": [{"measurement": "IC50", "setting": "[2]", "result": 81.6, "unit": "µM"}]}]}
